Measured values reported in ChEMBL document CHEMBL1201862, “PubChem BioAssay data set” (2004).
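Values below derive from 48-hour exposures of cells grown in 96-well plates, with endpoints linearly interpolated between the two concentrations bracketing the appropriate inhibition level. GI50 marks 50% less growth.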 The source made the active and inactive calls. Rule as the data show it: active = GI50 up to about 1.1 µM and inactive = higher.

What was measured:
Experiment in all cases: NCI-60 cell line screen, 48 h
RXF 393 = tested on: RXF 393
SW-620 = tested on: SW-620
SK-MEL-2 = tested on: SK-MEL-2
SK-OV-3 = tested on: SK-OV-3
COLO 205 = tested on: COLO 205
DU-145 = tested on: DU-145
HCT-15 = tested on: HCT-15
SR = tested on: SR
786-0 = tested on: 786-0
SF-295 = tested on: SF-295
SNB-19 = tested on: SNB-19
SF-539 = tested on: SF-539
NCI/ADR-RES = tested on: NCI/ADR-RES
HT-29 = tested on: HT-29
Malme-3M = tested on: Malme-3M
UO-31 = tested on: UO-31
NCI-H226 = tested on: NCI-H226
Hs-578T = tested on: Hs-578T
HL-60 = tested on: HL-60

| SMILES | GI50 (RXF 393) | GI50 (SW-620) | GI50 (SK-MEL-2) | GI50 (SK-OV-3) | GI50 (COLO 205) | GI50 (DU-145) | GI50 (HCT-15) [µM] | GI50 (SR) | GI50 (786-0) | GI50 (SF-295) | GI50 (SNB-19) | GI50 (SF-539) | GI50 (NCI/ADR-RES) | GI50 (HT-29) | GI50 (Malme-3M) | GI50 (UO-31) | GI50 (NCI-H226) | GI50 (Hs-578T) | GI50 (HL-60) |
| --- | --- | --- | --- | --- | --- | --- | --- | --- | --- | --- | --- | --- | --- | --- | --- | --- | --- | --- | --- |
| COC(=O)/C=C\COCC1C2CCC(=O)C21 (stereo not given) | 9.62 µM (inactive) | 7.93 µM (inactive) | > 25 µM (inactive) | > 25 µM (inactive) | 14 µM (inactive) | > 25 µM (inactive) | 9.57 | 8.3 µM (inactive) | 11.5 µM (inactive) | > 25 µM (inactive) | > 25 µM (inactive) | 7.16 µM (inactive) | 17.4 µM (inactive) | 6.05 µM (inactive) | 4.67 µM (inactive) | 11.6 µM (inactive) | 18.5 µM (inactive) | – | – |
| N#Cc1c(N2CCN(c3ccc([N+](=O)[O-])cc3)CC2)[n+]([O-])c2ccc(-c3ccc([N+](=O)[O-])cc3)cc2[n+]1[O-] | – | 35.2 µM (inactive) | > 37.2 µM (inactive) | > 100 µM (inactive) | 17.9 µM (inactive) | 21.2 µM (inactive) | > 85.5 | – | > 47.8 µM (inactive) | 8.51 µM (inactive) | 9.18 µM (inactive) | 38.7 µM (inactive) | 9.08 µM (inactive) | > 67.6 µM (inactive) | > 42 µM (inactive) | 8.59 µM (inactive) | 33 µM (inactive) | > 75.2 µM (inactive) | – |
| Cc1ccc(S(=O)(=O)N/N=C2/C3C(CC2(C)C)C2(C)CCCC3(C)C2O)cc1 (stereo not given) | – | > 10 µM (inactive) | 21 µM (inactive) | 20.9 µM (inactive) | 16 µM (inactive) | 39.1 µM (inactive) | 23.2 | 20.7 µM (inactive) | 21.3 µM (inactive) | 15.4 µM (inactive) | 29.4 µM (inactive) | – | 21.2 µM (inactive) | 20.1 µM (inactive) | 24 µM (inactive) | 26.2 µM (inactive) | 17 µM (inactive) | 19 µM (inactive) | 26.1 µM (inactive) |
| CC(C)(C)[C@H]1NC(=O)CN1C(=O)OCc1ccccc1 | > 100 µM (inactive) | > 100 µM (inactive) | > 100 µM (inactive) | > 100 µM (inactive) | > 100 µM (inactive) | > 100 µM (inactive) | > 100 | 20 µM (inactive) | > 100 µM (inactive) | 45.6 µM (inactive) | > 100 µM (inactive) | > 100 µM (inactive) | > 100 µM (inactive) | > 100 µM (inactive) | > 100 µM (inactive) | 9.35 µM (inactive) | > 100 µM (inactive) | – | > 100 µM (inactive) |
| CC(=O)OCC1OC(n2c3c(c(-c4ccc(Cl)cc4)c(C#N)c2=S)CCCC3)C(OC(C)=O)C(OC(C)=O)C1OC(C)=O (stereo not given) | 23.5 µM (inactive) | – | 30.6 µM (inactive) | 75.2 µM (inactive) | 35.2 µM (inactive) | 42.6 µM (inactive) | 61.2 | > 100 µM (inactive) | 80.7 µM (inactive) | 37.9 µM (inactive) | 41.8 µM (inactive) | 74.5 µM (inactive) | 46.5 µM (inactive) | 57.5 µM (inactive) | 56.8 µM (inactive) | 4.4 µM (inactive) | 36.6 µM (inactive) | – | 64.9 µM (inactive) |
| CCSC1=N/C(=C\c2ccco2)C(Cl)=N1 | – | > 100 µM (inactive) | > 100 µM (inactive) | > 100 µM (inactive) | > 100 µM (inactive) | > 100 µM (inactive) | > 100 | > 100 µM (inactive) | > 100 µM (inactive) | > 100 µM (inactive) | > 100 µM (inactive) | > 100 µM (inactive) | > 100 µM (inactive) | > 100 µM (inactive) | – | > 100 µM (inactive) | > 100 µM (inactive) | > 100 µM (inactive) | > 100 µM (inactive) |
| CC(C)(C)c1cc(C(=O)Nc2cc(Br)c(Br)cc2S(N)(=O)=O)cc(C(C)(C)C)c1O | 11.1 µM (inactive) | 9.42 µM (inactive) | 10 µM (inactive) | 16.4 µM (inactive) | 5.08 µM (inactive) | 15.3 µM (inactive) | 3.85 | 6 µM (inactive) | 11 µM (inactive) | 14.2 µM (inactive) | 13.3 µM (inactive) | 15.8 µM (inactive) | – | 5.01 µM (inactive) | 13.5 µM (inactive) | 10.5 µM (inactive) | 13.1 µM (inactive) | 11.9 µM (inactive) | – |
| CC1=NC(C)(C)N(O)C1(C)C | > 100 µM (inactive) | > 100 µM (inactive) | > 100 µM (inactive) | > 100 µM (inactive) | > 100 µM (inactive) | > 100 µM (inactive) | > 100 | > 100 µM (inactive) | > 100 µM (inactive) | > 100 µM (inactive) | > 100 µM (inactive) | > 100 µM (inactive) | > 100 µM (inactive) | > 100 µM (inactive) | > 100 µM (inactive) | > 100 µM (inactive) | > 100 µM (inactive) | – | > 100 µM (inactive) |
| CC(C)(C)OC(=O)N[C@H]1CCN(C2CCCCC2)C1=O | – | > 100 µM (inactive) | > 100 µM (inactive) | > 100 µM (inactive) | > 100 µM (inactive) | > 100 µM (inactive) | > 100 | > 10 µM (inactive) | > 100 µM (inactive) | – | > 100 µM (inactive) | > 100 µM (inactive) | 40.6 µM (inactive) | – | – | > 100 µM (inactive) | > 100 µM (inactive) | > 100 µM (inactive) | > 100 µM (inactive) |
| COc1cc2c(cc1OC)C(=O)N1CCCC1C(=O)S2 (stereo not given) | > 100 µM (inactive) | > 100 µM (inactive) | > 100 µM (inactive) | > 100 µM (inactive) | > 100 µM (inactive) | – | > 100 | > 100 µM (inactive) | > 100 µM (inactive) | > 100 µM (inactive) | > 100 µM (inactive) | > 100 µM (inactive) | – | – | > 100 µM (inactive) | > 100 µM (inactive) | – | – | > 100 µM (inactive) |
| O=C(O[C@@H](/C=C/c1ccccc1)P1(=O)N(Cc2ccccc2)[C@@H]2CCCC[C@H]2N1Cc1ccccc1)c1ccccc1 | – | 3.66 µM (inactive) | 2.38 µM (inactive) | 5.92 µM (inactive) | 2 µM (inactive) | – | 2.99 | 2.68 µM (inactive) | 3.89 µM (inactive) | 3.55 µM (inactive) | 4.54 µM (inactive) | 4.68 µM (inactive) | 3.66 µM (inactive) | 3.44 µM (inactive) | 3.6 µM (inactive) | 3.4 µM (inactive) | 2.58 µM (inactive) | 8.89 µM (inactive) | 2.94 µM (inactive) |
| CCNC1CC(C(C)(C)NCC)CC=C1C (stereo not given) | – | > 100 µM (inactive) | – | > 100 µM (inactive) | > 100 µM (inactive) | > 100 µM (inactive) | > 100 | > 100 µM (inactive) | > 100 µM (inactive) | > 100 µM (inactive) | > 100 µM (inactive) | > 100 µM (inactive) | > 100 µM (inactive) | > 100 µM (inactive) | – | > 100 µM (inactive) | – | – | > 100 µM (inactive) |
| O=[N+]([O-])C(/C(Cl)=C(/Cl)N1CCOCC1)=C1\NCCO1 | – | > 100 µM (inactive) | > 100 µM (inactive) | > 100 µM (inactive) | > 100 µM (inactive) | > 100 µM (inactive) | > 100 | – | > 100 µM (inactive) | > 100 µM (inactive) | > 100 µM (inactive) | > 100 µM (inactive) | > 100 µM (inactive) | > 100 µM (inactive) | > 100 µM (inactive) | > 100 µM (inactive) | > 100 µM (inactive) | > 100 µM (inactive) | – |
| Cc1nn(C(=O)Cc2ccccc2)c2c1C(c1ccc(O)cc1O)SC(=N)N2 (stereo not given) | – | > 100 µM (inactive) | – | > 100 µM (inactive) | > 100 µM (inactive) | > 100 µM (inactive) | > 100 | > 100 µM (inactive) | > 100 µM (inactive) | > 100 µM (inactive) | > 100 µM (inactive) | > 100 µM (inactive) | – | > 100 µM (inactive) | > 100 µM (inactive) | > 100 µM (inactive) | > 100 µM (inactive) | > 100 µM (inactive) | > 100 µM (inactive) |
| COc1cccc(CCCNC(=O)Cc2cc(OC)c(OC)cc2CO)c1 | – | > 100 µM (inactive) | > 100 µM (inactive) | – | > 100 µM (inactive) | > 100 µM (inactive) | > 100 | > 100 µM (inactive) | > 100 µM (inactive) | – | > 100 µM (inactive) | – | > 100 µM (inactive) | > 100 µM (inactive) | > 100 µM (inactive) | > 100 µM (inactive) | > 100 µM (inactive) | > 100 µM (inactive) | > 100 µM (inactive) |
| O=c1c2c(oc3ccccc13)-c1ccccc1OC2 | – | 67.8 µM (inactive) | > 100 µM (inactive) | 20.2 µM (inactive) | > 10 µM (inactive) | 53.3 µM (inactive) | > 100 | – | 24.4 µM (inactive) | > 100 µM (inactive) | – | 25.2 µM (inactive) | 29.3 µM (inactive) | > 100 µM (inactive) | > 100 µM (inactive) | 28.6 µM (inactive) | > 100 µM (inactive) | – | – |
| COCC1OC(N2C(=O)NC(=O)[C@@H]3C=C4CCCCC4=C[C@@H]32)C(OC)C1OC (stereo not given in full) | – | > 100 µM (inactive) | > 100 µM (inactive) | > 100 µM (inactive) | – | > 100 µM (inactive) | > 100 | 19.1 µM (inactive) | > 100 µM (inactive) | > 100 µM (inactive) | > 100 µM (inactive) | > 100 µM (inactive) | > 100 µM (inactive) | > 100 µM (inactive) | > 100 µM (inactive) | 98.9 µM (inactive) | > 100 µM (inactive) | 68.9 µM (inactive) | 51.6 µM (inactive) |
